Experimental findings from US20250171437A1 (Agios Pharmaceuticals,Inc., priority 2022, published 2025) are described below.

A value given as a limit tells only on which side of the number the result lay.

The assay deals with T1, human PAH with the R408W mutation (A375 R408W cells) (Homo sapiens, UniProt P00439, R408W).
T1 construct: expressed in transfected cells
T1 sequence (P00439 1-452 R408W): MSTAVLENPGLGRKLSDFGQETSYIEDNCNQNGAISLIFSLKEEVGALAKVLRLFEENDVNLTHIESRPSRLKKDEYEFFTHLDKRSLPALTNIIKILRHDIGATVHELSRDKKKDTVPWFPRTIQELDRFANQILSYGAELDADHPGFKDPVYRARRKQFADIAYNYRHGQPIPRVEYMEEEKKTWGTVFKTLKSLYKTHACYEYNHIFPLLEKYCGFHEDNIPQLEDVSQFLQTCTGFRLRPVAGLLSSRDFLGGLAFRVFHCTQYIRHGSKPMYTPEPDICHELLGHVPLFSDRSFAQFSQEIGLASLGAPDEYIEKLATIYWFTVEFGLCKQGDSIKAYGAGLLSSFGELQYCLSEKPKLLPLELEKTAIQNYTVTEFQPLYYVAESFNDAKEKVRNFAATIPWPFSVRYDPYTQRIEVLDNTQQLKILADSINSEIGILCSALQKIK
Description: Cell Based Phenylalanine Flux Assay. The following applies: 24 hrs with compound, then 20 μM sepiapterin and 800 μM 13C9,15N-Phenylalanine for 4 hours, 13C-Tyrosine by LC-MS, average where tested multiple times. In a few lines: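 Puromycin-selected A375 line, lentiviral hPAH R408W; cmpd 24 h, 37 °C, 5% CO2, 0.5% DMSO; then 20 μM sepiapterin + 800 μM 13C9,15N-Phe, 4 h; media extracted in 80% MeCN; 13C-Tyr by LC-MS; AC50 from 10-pt curves.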

Where [1] appears, read: A375 cells expressing R408W PAH.

As for `Cn1cc(-c2nnc(C(=O)N3CCc4[nH]cnc4[C@H]3c3nc4ccccc4o3)o2)cn1` [Example 581, (S)-(4-(benzo[d]oxazol-2-yl)-6,7-dihydro-1H-imidazo[4,5-c]pyridin-5(4H)-yl)(5-(1-methyl-1H-pyrazol-4-yl)-1,3,4-oxadiazol-2-yl)methanone], the AC50 (commonly the concentration at which the activity in the assay is half-maximal) (A375 R408W cells) is at most 0.5 µM.

In the case of `CC(C)(O)c1cc(C(=O)N2CCc3[nH]cnc3C2c2nc3cc(F)ccc3o2)on1` (stereo not shown), the AC50 under setting [1] fell in the range of 1 to 5 µM. `O=C(c1cnn2cc(N3CCC4(CC3)CC4)ccc12)N1CCc2[nH]cnc2[C@H]1c1nc2c(F)cccc2o1` [Example 505, (S)-(6-(6-azaspiro[2.5]octan-6-yl)pyrazolo[1,5-a]pyridin-3-yl)(4-(4-fluorobenzo[d]oxazol-2-yl)-6,7-dihydro-1H-imidazo[4,5-c]pyridin-5(4H)-yl)methanone]: for the setting “A375 R408W cells”, the AC50 was in the range of 0.5 to 1 µM. Turning to `Cn1nc(C(F)F)nc1C(=O)N1CCc2[nH]cnc2[C@@H]1c1nc2cccc(F)c2o1` [Example 286, (R)-(3-(difluoromethyl)-1-methyl-1H-1,2,4-triazol-5-yl)(4-(7-fluorobenzo[d]oxazol-2-yl)-6,7-dihydro-1H-imidazo[4,5-c]pyridin-5(4H)-yl)methanone], the AC50 (A375 R408W cells) is 1 to 5 µM. With `CN(C)CCCc1ccc2c(C(=O)N3CCc4[nH]cnc4C3c3nc4cc(F)ccc4o3)cnn2c1` (stereo not shown), under setting [1], the AC50 was at least 5 µM. In the case of `Cn1cnc(-c2nc(C(F)F)c(C(=O)N3CCc4[nH]cnc4[C@H]3c3nc4cc(F)ccc4o3)o2)c1` [Example 641, (S)-(4-(difluoromethyl)-2-(1-methyl-1H-imidazol-4-yl)oxazol-5-yl)(4-(5-fluorobenzo[d]oxazol-2-yl)-6,7-dihydro-1H-imidazo[4,5-c]pyridin-5(4H)-yl)methanone], the AC50 (A375 R408W cells) is at most 0.5 µM. The same measure, in the same setting: for `O=C(c1nnc(-c2cnn(C(F)F)c2)o1)N1CCc2[nH]cnc2[C@@H]1c1nc2cccc(F)c2o1` [Example 876, (R)-(5-(1-(difluoromethyl)-1H-pyrazol-4-yl)-1,3,4-oxadiazol-2-yl)(4-(7-fluorobenzo[d]oxazol-2-yl)-6,7-dihydro-1H-imidazo[4,5-c]pyridin-5(4H)-yl)methanone] the value was at most 0.5 µM; for `O=C(c1oc(-c2ccc(C(F)(F)F)cn2)nc1C(F)F)N1CCc2[nH]cnc2[C@@H]1c1nc2cccc(F)c2o1` [Example 634, (R)-(4-(difluoromethyl)-2-(5-(trifluoromethyl)pyridin-2-yl)oxazol-5-yl)(4-(7-fluorobenzo[d]oxazol-2-yl)-6,7-dihydro-1H-imidazo[4,5-c]pyridin-5(4H)-yl)methanone], at most 0.5 µM.

For `CN(C)CCCOc1ccc2c(C(=O)N3CCc4[nH]cnc4C3c3nc4cc(F)ccc4o3)cnn2c1` (stereo not shown), the concentration at half-maximal activity (AC50) under setting [1] is at least 5 µM.

For the molecule `Cc1ccc2oc(C3c4nc[nH]c4CCN3C(=O)c3nnc(C)o3)nc2c1` (stereo not shown), the concentration at half-maximal activity (AC50) under setting [1] lay within 1 to 5 µM. The same measure, in the same setting: for `CC(C)(O)c1nc(C(F)F)c(C(=O)N2CCc3[nH]cnc3C2c2nc3cc(C#N)ccc3o2)o1` (stereo not shown) the value was 1 to 5 µM. On to `CC(C)(O)c1nc(C(F)F)c(C(=O)N2CCc3[nH]cnc3[C@@H]2c2nc3cc(F)ccc3o2)o1` (single isomer, unassigned) [Example 108], for which the AC50 (A375 R408W cells) fell in the range of 1 to 5 µM. As for `CC(F)(F)c1ncc(C(=O)N2CCc3[nH]cnc3[C@H]2c2nc3cc(F)ccc3o2)s1` [Example 35, (S)-(2-(1,1-difluoroethyl)thiazol-5-yl)(4-(5-fluorobenzo[d]oxazol-2-yl)-6,7-dihydro-1H-imidazo[4,5-c]pyridin-5(4H)-yl)methanone], the concentration at half-maximal activity (AC50) (A375 R408W cells) lay in the range of 0.5 to 1 µM.

As to `Cn1nc(C(C)(C)O)cc1C(=O)N1CCc2[nH]cnc2C1c1nc2cc(F)ccc2o1` (stereo not shown), the concentration at half-maximal activity (AC50) under setting [1] is at least 5 µM. Consider `Cc1cc(C(=O)N2CCc3[nH]cnc3[C@H]2c2nc3ccccc3o2)n(C)n1` [Example 779, (S)-(4-(benzo[d]oxazol-2-yl)-6,7-dihydro-1H-imidazo[4,5-c]pyridin-5(4H)-yl)(1,3-dimethyl-1H-pyrazol-5-yl)methanone], for which the half-maximal activity concentration (AC50) (A375 R408W cells) is 1 to 5 µM. On the same count and under the same terms, for `CC(C)(O)c1nc(C(F)F)c(C(=O)N2CCc3[nH]cnc3[C@@H]2c2nc3c(Br)cccc3o2)o1` [Example 432, (R)-(4-(4-bromobenzo[d]oxazol-2-yl)-6,7-dihydro-1H-imidazo[4,5-c]pyridin-5(4H)-yl)(4-(difluoromethyl)-2-(2-hydroxypropan-2-yl)oxazol-5-yl)methanone] the value was at most 0.5 µM. For the molecule `Cc1ccc2nc(C3c4nc[nH]c4CCN3C(=O)c3nnc(-c4cn[nH]c4)o3)oc2c1` (stereo not shown), under setting [1], the AC50 fell in the range of 1 to 5 µM. Consider `Cc1cccc2nc([C@@H]3c4nc[nH]c4CCN3C(=O)c3ccnn3C(F)(F)F)oc12` [Example 710, (S)-(4-(7-methylbenzo[d]oxazol-2-yl)-6,7-dihydro-1H-imidazo[4,5-c]pyridin-5(4H)-yl)(1-(trifluoromethyl)-1H-pyrazol-5-yl)methanone], for which, where the note is “A375 R408W cells”, the AC50 is at most 0.5 µM. On the same count and under the same terms, for `Cc1ccc2nc([C@@H]3c4nc[nH]c4CCN3C(=O)c3oc(C(C)(C)O)nc3Br)oc2c1` [Example 439, (S)-(4-bromo-2-(2-hydroxypropan-2-yl)oxazol-5-yl)(4-(6-methylbenzo[d]oxazol-2-yl)-6,7-dihydro-1H-imidazo[4,5-c]pyridin-5(4H)-yl)methanone] the value was at most 0.5 µM; for `CC(C)(F)c1nnc(C(=O)N2CCc3[nH]cnc3[C@@H]2c2nc3c(F)ccc(F)c3o2)o1` [Example 809, (R)-(4-(4,7-difluorobenzo[d]oxazol-2-yl)-6,7-dihydro-1H-imidazo[4,5-c]pyridin-5(4H)-yl)(5-(2-fluoropropan-2-yl)-1,3,4-oxadiazol-2-yl)methanone], at most 0.5 µM; for `O=C(CCc1nccs1)N1CCc2[nH]cnc2[C@H]1c1nc2cccc(F)c2o1` [Example 385, 1-[(4S)-4-(7-fluoro-1,3-benzoxazol-2-yl)-1,4,6,7-tetrahydroimidazo[4,5-c]pyridin-5-yl]-3-thiazol-2-yl-propan-1-one], at most 0.5 µM. Same read-out and setting: for `COc1cccc2nc([C@H]3c4nc[nH]c4CCN3C(=O)c3ncnn3C)oc12` [Example 776, (R)-(4-(7-methoxybenzo[d]oxazol-2-yl)-6,7-dihydro-1H-imidazo[4,5-c]pyridin-5(4H)-yl)(1-methyl-1H-1,2,4-triazol-5-yl)methanone] the value was 1 to 5 µM. `Cc1nc(-c2cnn(C)c2)sc1C(=O)N1CCc2[nH]cnc2C1c1nc2cc(F)ccc2o1` (stereo not shown): under setting [1], the AC50 was 1 to 5 µM. Turning to `O=C(c1nnc(-c2ccc(OC(F)(F)F)cn2)o1)N1CCc2[nH]cnc2[C@@H]1c1nc2cc(F)ccc2o1` [Example 672, (R)-(4-(5-fluorobenzo[d]oxazol-2-yl)-6,7-dihydro-1H-imidazo[4,5-c]pyridin-5(4H)-yl)(5-(5-(trifluoromethoxy)pyridin-2-yl)-1,3,4-oxadiazol-2-yl)methanone], the half-maximal activity concentration (AC50) (A375 R408W cells) lay within 1 to 5 µM. Still for that read-out and setting: for `Cc1ccc2oc([C@H]3c4nc[nH]c4CCN3C(=O)c3nnc(-c4ccn(C)n4)o3)nc2c1` [Example 390, (R)-(5-(1-methyl-1H-pyrazol-3-yl)-1,3,4-oxadiazol-2-yl)(4-(5-methylbenzo[d]oxazol-2-yl)-6,7-dihydro-1H-imidazo[4,5-c]pyridin-5(4H)-yl)methanone] the value was 1 to 5 µM; for `Cc1cccc2nc([C@H]3c4nc[nH]c4CCN3C(=O)c3ccnn3C)oc12` [Example 748, (R)-(1-methyl-1H-pyrazol-5-yl)(4-(7-methylbenzo[d]oxazol-2-yl)-6,7-dihydro-1H-imidazo[4,5-c]pyridin-5(4H)-yl)methanone], 1 to 5 µM; for `CNc1cn2ncc(C(=O)N3CCc4[nH]cnc4[C@H]3c3nc4cc(F)ccc4o3)c2cc1Cl` [Example 205, (S)-(5-chloro-6-(methylamino)pyrazolo[1,5-a]pyridin-3-yl)(4-(5-fluorobenzo[d]oxazol-2-yl)-6,7-dihydro-1H-imidazo[4,5-c]pyridin-5(4H)-yl)methanone], at most 0.5 µM. The same measure, in the same setting: next, `Cn1cnc(-c2nnc(C(=O)N3CCc4[nH]cnc4[C@@H]3c3nc4c(F)ccc(F)c4o3)o2)c1` [Example 818, (R)-(4-(4,7-difluorobenzo[d]oxazol-2-yl)-6,7-dihydro-1H-imidazo[4,5-c]pyridin-5(4H)-yl)(5-(1-methyl-1H-imidazol-4-yl)-1,3,4-oxadiazol-2-yl)methanone]: 1 to 5 µM; `CNC(C)(C)c1nc(C(F)F)c(C(=O)N2CCc3[nH]cnc3[C@@H]2c2nc3cc(F)ccc3o2)o1` [Example 222, (R)-(4-(difluoromethyl)-2-(2-(methylamino)propan-2-yl)oxazol-5-yl)(4-(5-fluorobenzo[d]oxazol-2-yl)-6,7-dihydro-1H-imidazo[4,5-c]pyridin-5(4H)-yl)methanone]: 1 to 5 µM. Take `O=C(c1cnn2cc(N3CCC(F)CC3)ccc12)N1CCc2[nH]cnc2C1c1nc2cc(F)ccc2o1` (stereo not shown): the AC50 under setting [1] fell in the range of 1 to 5 µM. `O=C(c1nnc(-c2ccn(C(F)F)n2)o1)N1CCc2[nH]cnc2[C@H]1c1nc2cc(F)ccc2o1` [Example 113, (S)-(5-(1-(difluoromethyl)-1H-pyrazol-3-yl)-1,3,4-oxadiazol-2-yl)(4-(5-fluorobenzo[d]oxazol-2-yl)-6,7-dihydro-1H-imidazo[4,5-c]pyridin-5(4H)-yl)methanone]: for the setting “A375 R408W cells”, the AC50 lay within 1 to 5 µM.
